Like-named read-outs stand apart in the source and are kept apart here.
Columns and labels:
[1] = molecular target: T1, CCKB receptor (guinea pig cerebral cortex) (Cavia porcellus, UniProt H0VZC5); experiment: 125I-CCK-8 receptor binding assay, CCKB; conditions: guinea pig cerebral cortex membranes
T1 construct: CCKB (nM); other: guinea pig cerebral cortex membranes, 125I-Bolton-Hunter CCK 25 pM; Activity CCK-B [μM]; guinea pig cerebral cortex membranes
T1 sequence (H0VZC5 1-426): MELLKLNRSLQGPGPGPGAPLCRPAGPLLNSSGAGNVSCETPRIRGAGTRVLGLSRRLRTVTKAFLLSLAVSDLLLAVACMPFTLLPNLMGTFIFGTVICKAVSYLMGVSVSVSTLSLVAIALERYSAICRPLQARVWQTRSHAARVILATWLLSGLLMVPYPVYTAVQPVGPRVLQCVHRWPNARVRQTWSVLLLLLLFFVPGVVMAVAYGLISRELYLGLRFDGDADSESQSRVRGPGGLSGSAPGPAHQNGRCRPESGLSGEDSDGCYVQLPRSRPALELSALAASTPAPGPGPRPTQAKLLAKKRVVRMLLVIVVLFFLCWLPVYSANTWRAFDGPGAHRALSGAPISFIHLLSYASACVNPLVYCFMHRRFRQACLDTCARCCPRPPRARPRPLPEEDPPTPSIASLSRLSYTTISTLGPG
Method: (§1) CCKA and CCKB receptor binding assays were performed, by using guinea pig cerebral cortex (CCKB) or rat pancreas (CCKA). Male guinea pig brain tissues were prepared according to the modified method described by Saita et al, [(1994), Characterization of YM022: its CCKB/gastrin receptor binding profile and antagonism to CCK-8-induced Ca2+mobilization., Eur. J. Pharmacol.,269, 249-254]. Pancreatic membranes were prepared in a similar way but by Charpentier et al, [(1988), Cyclic cholecystokinin analogues with high selectivity for central receptors., Proc Natl Acad Sci USA, 85, 1968-1972]. The […] CCK binding assay: Tissues were homogenized in ice cold sucrose (0.32 M, 25 ml) for 15 strokes at 500 rpm and centrifuged at 13000 rpm for 10 mins. The supernatant was re-centrifuged at 13000 rpm for 20 mins. The resulting pellet was re-dispersed to the required volume of buffer at 500 rpm and stored in aliquots at […].
(§2) Binding was achieved using a radioligand ^125I-Bolton-Hunter labeled CCK, NEN at 25 pM. The samples were incubated {with membranes (0.1 mg/ml) } in 20 mM Hepes, 1 mM EGTA, 5 mM MgCl2, 150 mm NaCl, 0.25 mg/ml bacitracin at pH 6.5 for 2 hrs at RT and then […] by centrifugation at 1100 rpm for 5 minutes. The membrane pellets were washed twice with water and the bound radioactivity was measured in a Packard Cobra Auto-gamma counter (B5005). All binding assays were carried out with L-363, 260 as an internal non-specific standard. Controls (no compound) were also added. All samples were made in duplicate and repeated twice. All compounds were initially screened for percentage inhibition at 20 μm. Samples showing an average inhibition of <35% were diluted to 2 μm and re-screened and if active diluted again.

[2] = molecular target: T2, CCKA receptor (rat pancreas) (Rattus norvegicus, UniProt P30551); experiment: 125I-CCK-8 receptor binding assay, CCKA; conditions: rat pancreas membranes, 125I-Bolton-Hunter CCK 25 pM
T2 construct: Pancreatic membranes were prepared in a similar way but by Charpentier et al; from tissue; host or cells: rat pancreas membranes
T2 sequence (P30551 1-444): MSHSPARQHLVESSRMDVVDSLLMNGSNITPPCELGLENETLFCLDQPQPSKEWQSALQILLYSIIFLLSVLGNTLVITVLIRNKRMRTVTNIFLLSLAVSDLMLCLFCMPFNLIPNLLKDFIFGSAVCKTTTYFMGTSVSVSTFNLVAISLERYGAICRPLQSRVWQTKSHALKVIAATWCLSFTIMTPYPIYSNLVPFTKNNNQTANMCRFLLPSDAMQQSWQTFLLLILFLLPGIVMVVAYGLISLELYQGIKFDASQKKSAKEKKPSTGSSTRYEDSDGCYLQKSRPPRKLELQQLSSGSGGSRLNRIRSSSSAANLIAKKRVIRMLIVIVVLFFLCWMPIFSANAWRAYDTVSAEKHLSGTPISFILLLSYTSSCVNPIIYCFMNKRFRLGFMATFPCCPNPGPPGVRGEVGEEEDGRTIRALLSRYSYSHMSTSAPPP
Method: as §1, §2

[3] = system: CCKB receptor (guinea pig cerebral cortex); experiment: 125I-CCK-8 receptor binding assay, CCKB; conditions: ratio CCKB/CCKA
Method: as §1, §2

[4] = Table 2, read-out: Activity CCK-B [μM] (IC50)
[5] = 125I-Bolton-Hunter CCK 25 pM, read-out: CCKB

SMILES	IC50 [1, 4] [µM]	also measured
C#CCOC1OC(=O)C(Cl)=C1N1C(C)CNCC1C (stereo not drawn) [Example A3B20]	11.2	–
CC(C)OC1OC(=O)C(Cl)=C1N(C)Cc1ccccc1 (stereo not drawn) [Example 10, 4-[Benzyl(methyl)amino]-3-chloro-5-isopropoxyfuran-2(5H)-one]	12	–
CC(C)OC1OC(=O)C(Cl)=C1N(Cc1ccccc1)Cc1ccccc1 (stereo not drawn) [Example 12, 3-Chloro-4-(dibenzylamino)-5-isopropoxyfuran-2(5H)-one]	17	–
COC1OC(=O)C(Cl)=C1Nc1c(C)n(C)n(-c2ccccc2)c1=O (stereo not drawn) [Example 14]	18	–
C#CCOC1OC(=O)C(Cl)=C1N1CCN(Cc2ccccc2)CC1 (stereo not drawn) [Example 5, 4-(4-Benzylpiperazin-1-yl) 3-chloro-5-(prop-2-ynyloxy)furan-2(5H)-one]	> 20	–
C#CCOC1OC(=O)C(Cl)=C1NCc1ccccc1 (stereo not drawn) [Example 4, 4-(Benzylamino)-3-chloro-5-(prop-2-ynyloxy)furan-2(5H)-one]	–	IC50 [2]: 9 nM; Selectivity [3]: 1.5; IC50 [1, 5]: 0.014 µM
COC1OC(=O)C(Cl)=C1NC1CCC(CCCc2ccccc2)CC1 (stereo not drawn) [Example A8B25]	16	–
COC1OC(=O)C(Cl)=C1N1CCN(Cc2ccccc2)CC1 (stereo not drawn) [Example A8B16]	16	–
COC1OC(=O)C(Cl)=C1N1CCC(c2ccccc2)CC1 (stereo not drawn) [Example A8B11]	3	–
O=C1OC(Cl)C(Nc2ccccc2)=C1Cl (stereo not drawn) [Example 8, 4-Anilino-3,5-dichlorofuran-2(5H)-one]	16	–
CCN(C1=C(Cl)C(=O)OC1CC(=O)c1ccc(Cl)cc1)c1cccc(C)c1 (stereo not drawn) [Example 16, 3-Chloro-5-[2-(4-chlorophenyl)-2-oxoethyl]-4-(ethyl-3-methylanilino) furan-2(5H)-one]	–	IC50 [2]: 8 nM; Selectivity [3]: 2.3; IC50 [1, 5]: 0.019 µM
C#CCOC1OC(=O)C(Cl)=C1N1CC(C)OC(C)C1 (stereo not drawn) [Example 3, 3-Chloro-4-(2,6-dimethylmorpholin-4-yl)-5-(prop-2-ynyloxy)furan-2(5H)-one]	12.6	–
C#CCOC1OC(=O)C(Cl)=C1N(C(C)C)C1CCCCC1 (stereo not drawn) [Example 6, 3-Chloro-4-[cyclohexyl(isopropyl)amino]-5-(prop-2-ynyloxy)furan-2(5H)-one]	–	IC50 [2]: 6 nM; Selectivity [3]: 1.3; IC50 [1, 5]: 0.008 µM
COC1OC(=O)C(Cl)=C1NCCCN1CCOCC1 (stereo not drawn) [Example A8B17]	15	–
COC1OC(=O)C(Cl)=C1n1ccc(C)n1 (stereo not drawn) [Example A8B26]	11	–
COC1OC(=O)C(Cl)=C1N1CCN(c2ccccc2)CC1 (stereo not drawn) [Example A8B8]	14	–
CC(=O)OC1OC(=O)C(Cl)=C1N1CCc2ccccc21 (stereo not drawn) [Example 2, 4-ClIforo-3-(2,3-dihydro-1H-indol-1-yl)-5-oxo-2,5-dihydrofuran-2-yl acetate]	> 20	–
COC1OC(=O)C(Cl)=C1Nc1cccc(C)c1 (stereo not drawn) [Example A8B4]	2.5	–
CC(C)CNC1=C(Cl)C(=O)OC1c1ccccc1 (stereo not drawn) [Example 17, 3-Chloro-4-(isobutylamino)-5-phenyl furan-2(5H)-one]	–	IC50 [2]: 7 nM; Selectivity [3]: 1.6; IC50 [1, 5]: 0.011 µM
CCCCCCCCCCCCCCCCOC1OC(=O)C(Cl)=C1N1CCN(C(=O)OCC)CC1 (stereo not drawn) [Example A7B24]	12.4	–
CCCCCCNC1=C(Cl)C(=O)OC1OC (stereo not drawn) [Example 15, 3-Chloro-4-(hexylamino)-5-methoxyfuran-2(5H)-one]	–	IC50 [2]: 8 nM; Selectivity [3]: 1.5; IC50 [1, 5]: 0.012 µM
C=COC1OC(=O)C(Cl)=C1Nc1c(C)n(C)n(-c2ccccc2)c1=O (stereo not drawn) [Example 7, 3-Chloro-4-[(1,5-dimethyl-2-phenyl-1,3-dihydro-3H-pyrazol-3-one)amino]-5-(vinyloxy)furan-2(5H)-one]	3.3	–

Continued by falling IC50 [1, 4], values first:

IC50 [1, 4] [µM]	SMILES	also measured
2.5	CCCCCCCCCCCCNC1=C(Cl)C(=O)OC1OC (stereo not drawn) [Example A8B10]	–
2.5	CC(C)OC1OC(=O)C(Cl)=C1N1CCc2ccccc21 (stereo not drawn) [Example 9, 3-Chloro-4-(2,3-dihydro-1H-indol-1-yl)-5-isopropoxy-2(5H)-one]	–
2.3	COC1OC(=O)C(Cl)=C1n1cnc2ccccc21 (stereo not drawn) [Example A8B3]	–
2.2	CC1CCC(C(C)C)C(OC2OC(=O)C(Cl)=C2N2CCCC2)C1 (stereo not drawn) [Example A1B9]	–
1.5	COC1OC(=O)C(Cl)=C1N1CCc2ccccc21 (stereo not drawn) [Example A8B2]	–
1.2	CCC(C)NC1=C(Cl)C(=O)OC1OC (stereo not drawn) [Example A8B5]	–
1.1	CC(C)OC1OC(=O)C(Cl)=C1NCCc1ccccc1 (stereo not drawn) [Example 13, 3-Chloro-5-isopropoxy-4-(phenethylamine)furan-2(5H)-one]	–
0.95	CC(C)OC1OC(=O)C(Cl)=C1NCc1ccccc1Cl (stereo not drawn) [Example 11, 3-Chloro-4-[(2-chlorobenzyl)amino]-5-isopropoxy-4-2(SH)-oue]	–
0.86	CCCCCCCCCCCCCCCCOC1OC(=O)C(Cl)=C1n1cc(C)cc1C (stereo not drawn) [Example A7B23]	–
0.31	CC1CCC(C(C)C)C(OC2OC(=O)C(Cl)=C2N(C)Cc2ccccc2)C1 (stereo not drawn) [Example 1, 4-[Benzyl(metliyl)arino]-3-chloro-5-[(2-isopropyl-5-methlylcyclohexyl)oxo] furan-2(5H)-one]	–

Reference: US20070123718A1, “Novel 4-amino-2(5H)-furanones” (Aston University, priority 2003, published 2007)
